Results from ChEMBL document CHEMBL3352042, “Synthesis of novel benzimidazole functionalized chiral thioureas and evaluation of their antibacterial and anticancer activities” (Bioorg Med Chem Lett, 2014).
≈ marks a conversion by molar mass, not a printed value. Calls of active or inactive are those of the source. The calls are words filed in the database; no cut-off is given here.

Columns and labels:
[1] = tested on: Staphylococcus aureus; assay: Antibacterial activity against Staphylococcus aureus MTCC 96 after 24 hrs by well diffusion method; format: functional
[2] = tested on: DU-145; assay: Cytotoxicity against human DU145 cells by MTT assay; format: functional, cell-based
[3] = tested on: Raoultella planticola; assay: Antibacterial activity against Klebsiella planticola MTCC 530 after 24 hrs by well diffusion method; format: functional
[4] = tested on: Micrococcus luteus; assay: Antibacterial activity against Micrococcus luteus MTC 2470 after 24 hrs by well diffusion method; format: functional
[5] = tested on: Bacillus subtilis; assay: Antibacterial activity against Bacillus subtilis MTCC 121 after 24 hrs by well diffusion method; format: functional
[6] = tested on: Pseudomonas aeruginosa; assay: Antibacterial activity against Pseudomonas aeruginosa MTCC 2453 after 24 hrs by well diffusion method; format: functional
[7] = tested on: HeLa; assay: Cytotoxicity against human HeLa cells by MTT assay; format: functional, cell-based
[8] = tested on: Escherichia coli; assay: Antibacterial activity against Escherichia coli MTCC 739 after 24 hrs by well diffusion method; format: functional
[9] = tested on: MCF7; assay: Cytotoxicity against human MCF7 cells by MTT assay; format: functional, cell-based; details: Homo sapiens, MCF7; read-out: IC50
[10] = tested on: A549; assay: Cytotoxicity against human A549 cells by MTT assay; format: functional, cell-based
[11] = tested on: Staphylococcus aureus; assay: Antibacterial activity against Staphylococcus aureus MLS16 MTCC 2940 after 24 hrs by well diffusion method; format: functional
[12] = Homo sapiens, DU-145, read-out: IC50
[13] = Homo sapiens, HeLa, read-out: IC50
[14] = Homo sapiens, A549, read-out: IC50

SMILES | MIC ([1]; MTCC 96, 24 h) | IC50 [2, 12] | MIC ([3]; MTCC 530, 24 h) | MIC ([4]; MTC 2470, 24 h) | MIC ([5]; MTCC 121, 24 h) | MIC ([6]; MTCC 2453, 24 h) | IC50 [7, 13] | MIC ([8]; MTCC 739, 24 h) | IC50 [9] | IC50 [10, 14] | MIC ([11]; MLS16 MTCC 2940, 24 h) | MIC [1] | MIC [3] | MIC [4] | MIC [5] | MIC [6] | MIC [8] | MIC [11] | other results
CC(C)[C@H](NC(=S)Nc1ccccc1)c1nc2ccccc2[nH]1 | > 200 µg/mL | 12.3 µM | > 200 µg/mL | > 200 µg/mL | > 200 µg/mL | > 200 µg/mL | 11.1 µM | > 200 µg/mL | 9.8 µM | 5.2 µM | > 200 µg/mL | – | – | – | – | – | – | – | –
CC(C)C[C@@H](NC(=S)Nc1cc(C(F)(F)F)cc(C(F)(F)F)c1)c1nc2ccccc2[nH]1 | – | 16.5 µM | – | – | – | – | 10.4 µM | – | 91 µM | 10.2 µM | – | inactive | inactive | inactive | inactive | inactive | inactive | inactive | –
C[C@H](NC(=S)Nc1ccccc1)c1nc2ccccc2[nH]1 | 12.5 µg/mL (≈ 42.2 µM) | – | > 200 µg/mL | > 200 µg/mL | 12.5 µg/mL (≈ 42.2 µM) | > 200 µg/mL | – | > 200 µg/mL | 196 µM | 188 µM | > 200 µg/mL | – | – | – | – | – | – | – | IC50 ([2]; du-145): Not Active; IC50 ([7]; hela): Not Active
S=C(NCc1ccccc1)N[C@H](Cc1ccccc1)c1nc2ccccc2[nH]1 | – | 24.3 µM | – | – | – | – | – | – | 32.2 µM | 26.5 µM | – | inactive | inactive | inactive | inactive | inactive | inactive | inactive | IC50 ([7]; hela): Not Active
S=C(NCc1ccccc1)N[C@@H](Cc1ccccc1)c1nc2ccccc2[nH]1 | 25 µg/mL (≈ 64.7 µM) | 39.7 µM | > 200 µg/mL | > 200 µg/mL | > 200 µg/mL | > 200 µg/mL | 30.1 µM | > 200 µg/mL | 40.2 µM | 32.8 µM | > 200 µg/mL | – | – | – | – | – | – | – | –
CC(C)C[C@@H](NC(=S)Nc1ccccc1)c1nc2ccccc2[nH]1 | – | 20 µM | – | – | – | – | 12.1 µM | – | 11.9 µM | 18.7 µM | – | inactive | inactive | inactive | inactive | inactive | inactive | inactive | –
C[C@H](NC(=S)NCc1ccccc1)c1nc2ccccc2[nH]1 | 12.5 µg/mL (≈ 40.3 µM) | 226 µM | > 200 µg/mL | > 200 µg/mL | 25 µg/mL (≈ 80.5 µM) | > 200 µg/mL | – | > 200 µg/mL | 217 µM | – | > 200 µg/mL | – | – | – | – | – | – | – | IC50 ([10]; a549): Not Active
CC(C)C[C@H](NC(=S)Nc1cc(C(F)(F)F)cc(C(F)(F)F)c1)c1nc2ccccc2[nH]1 | 25 µg/mL (≈ 52.7 µM) | 17.2 µM | 12.5 µg/mL (≈ 26.3 µM) | 6.25 µg/mL (≈ 13.2 µM) | 12.5 µg/mL (≈ 26.3 µM) | 25 µg/mL (≈ 52.7 µM) | 18.1 µM | 12.5 µg/mL (≈ 26.3 µM) | 16.3 µM | 17.4 µM | 12.5 µg/mL (≈ 26.3 µM) | – | – | – | – | – | – | – | –
C[C@@H](NC(=S)Nc1ccccc1)c1nc2ccccc2[nH]1 | – | 22.1 µM | – | – | – | – | 12.4 µM | – | 16.4 µM | 14.8 µM | – | inactive | inactive | inactive | inactive | inactive | inactive | inactive | –
CC(C)[C@@H](NC(=S)Nc1cc(C(F)(F)F)cc(C(F)(F)F)c1)c1nc2ccccc2[nH]1 | – | 20.2 µM | – | – | – | – | 16.2 µM | – | 16.4 µM | 22.4 µM | – | inactive | inactive | inactive | inactive | inactive | inactive | inactive | –
